Measurements from US20250345309A1, “IMMUNE HEALTH IMPROVERS” (Amazentis SA, priority 2024, published 2025).

Tests used:
[1] = human, in vivo
PBMCs [2] = test: Single cell RNA sequencing of PBMCs; assay type: in vivo, human
T cells = test: T cell stimulation assay (αCD3/αCD28 beads, four days); assay type: in vivo, human; conditions: PBMCs ex vivo
Method: To study the antigen response of T cells, 0.5×10^6 thawed PBMCs were pre-stained with CellTrace Violet (C34557 ThermoFisher Scientific) according to the manufacturer's instructions. After washing, they were plated in a 24 well plate for 24 h to deplete monocyte populations by plastic adherence. Next, cells in suspension were transferred to a new tube and centrifuged at 350 g for 5 min, followed by reconstitution in fresh T cell medium. Cells were stimulated with human αCD3/C28 stimulation beads (Dynabeads, ThermoFirsher) for four days, using a ratio of 25 μl Beads per 0.5×10^6 cells. Following the stimulation period, magnetic beads were discarded via magnetic separation and cells were stained with PE-Cy7 CD4, APC-Cy7CD8, CD45RA FITC, CCR7 AF700 and live/dead ef780. To study cytokine expression, Brefeldin A (Biolegend) was added to stimulated PBMCs for the last 3 hours. Cells were then washed and stained using the panel above, while intracellular staining for cytokine assessment was performed with BD Cytofix/Cytoperm (BD) with 20 min fixation and overnight incubation with αIL-4-CF594, αIFNγ-PE (XMG1.2; 45-7311-82; eBioscience) and αTNFa-APC (MP6-XT22; 563944; BD). Finally, samples were fixed with 1% PFA until data acquisition. To functionally characterize the human immune system after systemic UA supplementation further, proliferative capacity and cytokine secretion of T cells was assessed. PBMCs from both intervention groups were incubated in the presence of αCD3/αCD28 stimulation beads for a total of four days (FIG. 10A).

monocytes = test: Phagocytosis assay (pHrodo E. coli Red BioParticles); assay type: in vivo, human; conditions: ex vivo, d28, 1000 mg/day oral, compared with placebo cohort
Method: The pHrodo™ E. coli Red BioParticles® Phagocytosis Kit for Flow Cytometry (Invitrogen) was used to assess phagocytotic capacity of monocytes. The particles were inactivated, unopsonized Escherichia coli (K-12 strain) that enables measurement of phagocytic activity based on acidification of particles as they are ingested. Thawed PBMCs were immediately used for analysis. 25 μL of E. coli Red BioParticles® were added to 0.25×10^6 PBMCs in 225 μl PBMC medium. As a negative control, 20 μL of PBS were added to 225 μl of PBMCs. Incubation was performed at 37° C. for 45 min, followed by immediate transfer on ice. Cells were then washed in FACS buffer, centrifuged at 1500 rpm for 5 min, followed by another wash step. Cells were stained for 10 min at 4° C. After washing, cells were reconstituted in PBS and subjected to analysis using a Cytek Aurora fow cytometer. Monocytes were identified as CD3−, CD16+ cells.

PBMCs [3] = test: Mitochondrial analysis of PBMCs (Mitotracker Green, MitotrackerRedCMXROS, PGC-1α, Parkin); assay type: in vivo, human
Method: PBMCs were thawed as depicted above and cultured in T cell medium (RPMI (ThermoFisher Scientific) 10% FBS (South America origin), 10 mM Hepes (Sigma), 1× Non-Essential Amino Acid, 1 mM Sodium Pyruvate, 50 μM β-Mercaptoethanol, 100 U/ml penicillin, 100 μg/ml streptomycin and 2 mM Glutamax (ThermoFisher Scientific)) overnight. After washing, cells were reconstituted in T cell medium containing respective staining agent: for labelling of mitochondrial mass, Mitotracker Green (Invitrogen) was used at a concentration of 40 nM for 30 mins at 37° C. Mitochondrial membrane potential was assessed via MitotrackerRedCMXROS. Cells were then stained with a combination of CD3 vFlour 450, PE-Cy7 CD4, APC-Cy7 CD8, CCR7 APC, CD45RA FITC and Ghost Violet510. To assess expression of peroxisome proliferator-activated receptor gamma coactivator 1-alpha (PGC-1α), cells were rested for four hours after thawing, then stained with the panel above for 15 mins at 4° C. After washing in FACS buffer, cells were permeabilized and fixed using the eBioscience™ Foxp3/Transcription Factor Staining Buffer Set, followed by staining with PGC-1α (sc-518025; D-5; Santa Cruz) antibody. To assess the expression of Parkin, cells were first stained with CD4 BV786, CD8 PECF 594, CD3 BUV 395, CD45RA FITC, CD14 eF450 and live/dead 780, followed by permeabilization and fixation with transcription factor buffer set kit (BD Biosciences). For mitochondrial analysis, cells were finally fixed in 1% PFA and analyzed on a Cytek Aurora cytometer. Samples were unmixed using reference controls generated in combination with stained Ultracomp beads (Fisher Scientific, 01-2222-41).

circulating immune cells = test: Clinical hemocytometry of circulating immune cells; assay type: in vivo, human; conditions: d28 vs baseline, 1000 mg/day oral
Method: During the baseline and follow-up visits, blood was drawn by a physician or physician's assistant to assess blood biochemistry parameters and haematology. Analysis was performed using clinically validated systems at the University Hospital Frankfurt, Germany. The aim of the present study was to globally assess the effect of UA on the immune system, in particular with respect to parameters of immune aging. We therefore performed clinical hemocytometry to first categorize circulating immune cells, comparing immune composition at baseline and upon the last study visit (FIG. 1A).

DNA methylation = DNA methylation biological age clocks (TruDiagnostic); assay type: in vivo, human; conditions: d28 vs start of intervention, 1000 mg/day oral; no decrease with placebo
From the text: Blood taken from the participants at baseline and the last study visit (d28) time points were applied to dried blood cards and processed by TruDiagnostic™. The test uses DNA methylation data analysis to calculate biological ages using the PhenoAge 2nd generation clock and the Hannum 1st generation clock. The Urolithin A intervention group's biological (immune cell-blood based) age was reduced by a median of about 2 years from the start of the intervention, as calculated by the PhenoAge clock (FIG. 11A). […] A decrease in biological age was not observed in the Placebo group.

[4] = after 28 days of UA compared to placebo
[5] = after 28 days, 1000 mg/day oral

O=c1oc2cc(O)ccc2c2ccc(O)cc12 [Urolithin A]
Intensity of adverse events noted during the study [1]: all mild
Activation markers CD69 and CXCR4 in NK cells (PBMCs [2]; after 28 days of UA): reduction
Electron transport chain components (MT-ND5, MT-CO1, MT-CO2) in naïve T cells (PBMCs [2]; after 28 days of UA): induced
Immediate-early genes (NR4A2, DUSP1, FOS, JUN, NFKBIA) in NK cells (PBMCs [2]; after 28 days of UA): reduction
Inflammatory gene signature (MX1, XAF1, ISG15, TNSF10) in B cells (PBMCs [2]; after 28 days of UA): downregulated
Interferon response pathway genes (IFITM2, IER2, STAT1) in monocytes (PBMCs [2]; after 28 days of UA): Strongest downregulation
Mitochondrial genes (MT-CYB, MT-ND5, MT-ATP8, MT-CO1) and NAMPT in monocytes (PBMCs [2]; after 28 days of UA): strong upregulation
Protein Kinase A (PKA) signaling and other immune inhibitory pathways, CD8+ T cells (PBMCs [2]; after 28 days of UA): strongly inhibited
T cell receptor (TCR) signaling, canonical pathway analysis, CD8+ T cells (PBMCs [2]; after 28 days of UA): activation
cAMP-responsive element modulator (CREM) in CD8+ TEM subset (PBMCs [2]; after 28 days of UA): downregulation
Differentially expressed genes in CD8+ T cells, down (PBMCs [2]; [4]): 37 genes
Differentially expressed genes in CD8+ T cells, up (PBMCs [2]; [4]): 52 genes
Genes associated with T cell exhaustion, suppression and hypofunction (NR4A2, CREM, TGFB1, METRNL) in CD8+ T cells (PBMCs [2]; [4]): downregulated
IL7R in CD8+ T cells (PBMCs [2]; [4]): induction
Wnt-associated stemness transcription factors TCF7 and LEF1 in CD8+ T cells (PBMCs [2]; [4]): upregulation
Differentially expressed genes in CD8+ T cells, total (PBMCs [2]; after 28 days of UA compared to placebo, five participants): 89 genes
CD8+ TCM/TEM phenotype distribution after CD3 receptor engagement (T cells): no treatment-specific distribution pattern
T cell proliferation (T cells; UA vs placebo, baseline vs d28): no difference
CD8+ expression of IFN-γ when stimulated (T cells; baseline vs d28): remained unchanged
IL-4 production of antigen challenged CD8+ cells (T cells; baseline vs d28, no change with placebo): reduced
Monocyte phagocytosis of E. coli particles (monocytes): significantly enhanced
Mitochondrial content in several CD8+ subsets (TN, TEM, TCM, TEFF) (PBMCs [3]; [5]): Increased
Mitochondrial content of CD4+ cells (PBMCs [3]; [5]): no significant change
Mitochondrial mass: proportion of MTGHi cells in CD8+ cells (PBMCs [3]; after 28 days, 1000 mg/day oral, absent in placebo): increased
PGC-1α expression in CD8+ cells (PBMCs [3]; after intervention period (d28), 1000 mg/day oral, no change with placebo): stronger expression
Mitochondrial membrane potential (MMP) in CD8+ cells (PBMCs [3]; d28, 1000 mg/day oral): significantly lower
PGC-1α in CD4+ cells (PBMCs [3]; d28, 1000 mg/day oral): no significant induction
Reduction of MMP in CD4+ cells (PBMCs [3]; d28, 1000 mg/day oral): absent
Reduction of MMP in CD8 subsets (PBMCs [3]; d28, 1000 mg/day oral): retained
Parkin protein expression (PBMCs [3]; study visits at seven days or 28 days, 1000 mg/day oral): Change in Parkin protein expression was detected
Monocytes (total count) (circulating immune cells): did not show marked alterations
Neutrophiles (total count) (circulating immune cells): did not show marked alterations
Total leukocytes (count) (circulating immune cells): did not show marked alterations
Circulating eosinophiles (total count) (circulating immune cells; not observed with placebo): significantly more
Circulating lymphocytes (total count) (circulating immune cells; not observed with placebo): significantly more
Reduction of biological (immune cell-blood based) age, PhenoAge clock, median (DNA methylation): about 2 years
